Experimental data reported in ChEMBL document CHEMBL5131457, “Design, synthesis and biological evaluation of novel 1H-pyrazole-4-carbonyl-4,5,6,7-tetrahydrobenzo [b]thiophene derivatives as gut-selective NaPi2b inhibitors” (Bioorg Med Chem Lett, 2022).

Key:
[1] = Solubility of the compound in FaSSIF at pH 6.6; type: physicochemical
[2] = Solubility of the compound in FeSSIF at pH 5.1; type: physicochemical
[3] = biological target: T1, Sodium-dependent phosphate transport protein 2B (Homo sapiens, UniProt O95436); experiment: Inhibition of human NaPi2b
T1 sequence (O95436 whole entry): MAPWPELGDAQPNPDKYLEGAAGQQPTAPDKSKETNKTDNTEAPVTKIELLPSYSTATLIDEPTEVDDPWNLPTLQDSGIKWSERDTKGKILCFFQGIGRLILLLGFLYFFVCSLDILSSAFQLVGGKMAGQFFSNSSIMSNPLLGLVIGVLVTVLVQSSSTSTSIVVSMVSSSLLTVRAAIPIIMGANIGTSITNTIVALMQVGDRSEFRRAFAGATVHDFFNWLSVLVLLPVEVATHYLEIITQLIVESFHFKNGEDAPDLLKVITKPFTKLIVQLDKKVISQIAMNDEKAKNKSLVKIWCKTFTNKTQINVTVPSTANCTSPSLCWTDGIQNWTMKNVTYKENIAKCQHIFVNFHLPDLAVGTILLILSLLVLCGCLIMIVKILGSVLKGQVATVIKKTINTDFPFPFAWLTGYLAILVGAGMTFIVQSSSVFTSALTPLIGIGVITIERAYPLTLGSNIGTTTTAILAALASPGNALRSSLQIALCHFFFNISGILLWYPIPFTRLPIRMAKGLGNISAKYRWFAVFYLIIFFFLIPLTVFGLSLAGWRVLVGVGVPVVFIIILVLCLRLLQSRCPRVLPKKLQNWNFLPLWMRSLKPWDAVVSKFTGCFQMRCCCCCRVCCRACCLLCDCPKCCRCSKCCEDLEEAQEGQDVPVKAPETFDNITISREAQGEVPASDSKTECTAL

[4] = biological target: T2, Sodium-dependent phosphate transport protein 2B (Rattus norvegicus, UniProt Q9JJ09); experiment: Inhibition of rat NaPi2b
T2 sequence (Q9JJ09 whole entry): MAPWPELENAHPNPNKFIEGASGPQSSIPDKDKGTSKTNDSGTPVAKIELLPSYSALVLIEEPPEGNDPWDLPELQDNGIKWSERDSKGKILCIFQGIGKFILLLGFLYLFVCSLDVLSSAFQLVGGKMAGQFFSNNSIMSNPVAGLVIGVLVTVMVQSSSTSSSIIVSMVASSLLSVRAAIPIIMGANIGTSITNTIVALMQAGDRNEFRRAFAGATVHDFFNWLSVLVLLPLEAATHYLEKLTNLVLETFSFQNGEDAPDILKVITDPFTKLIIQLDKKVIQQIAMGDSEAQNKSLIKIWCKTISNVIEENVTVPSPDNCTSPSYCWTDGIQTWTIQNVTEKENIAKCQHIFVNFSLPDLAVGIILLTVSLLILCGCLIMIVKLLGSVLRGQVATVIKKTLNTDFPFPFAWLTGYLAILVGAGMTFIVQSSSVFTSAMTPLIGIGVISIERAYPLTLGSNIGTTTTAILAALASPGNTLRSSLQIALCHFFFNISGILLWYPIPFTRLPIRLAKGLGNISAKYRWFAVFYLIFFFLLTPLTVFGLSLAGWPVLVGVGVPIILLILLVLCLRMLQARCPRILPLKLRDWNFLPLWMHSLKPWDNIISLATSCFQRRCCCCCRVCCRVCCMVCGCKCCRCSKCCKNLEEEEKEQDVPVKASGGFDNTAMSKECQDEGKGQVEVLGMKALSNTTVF

[5] = AUC (0 to t) in fasted Sprague-Dawley rat at 1 mg/kg, iv; type: ADME, organism-based; set-up: dose 1 mg/kg, route iv; details: in vivo; for AUC(0-t): Sprague-Dawley
[6] = Cmax in fasted Sprague-Dawley rat at 10 mg/kg, po; type: ADME, organism-based; set-up: dose 10 mg/kg, route po; details: in vivo
[7] = AUC (0 to t) in fasted Sprague-Dawley rat at 10 mg/kg, po; type: ADME, organism-based; set-up: dose 10 mg/kg, route po; details: in vivo; for AUC(0-t): Sprague-Dawley
[8] = Oral bioavailability in fasted Sprague-Dawley rat at 10 mg/kg; type: ADME, organism-based; details: in vivo; for bioavailability: Sprague-Dawley
[9] = Drug excretion in fasted Sprague-Dawley rat feces at 10 mg/kg, po measured after 24 hrs; type: ADME, organism-based; details: faeces, read-out: Drug excretion
[10] = Drug concentration in Sprague-Dawley rat intestine at 10 mg/kg, po relative to intestine volume; type: ADME, organism-based; details: in vivo
[11] = Drug concentration in Sprague-Dawley rat intestine at 10 mg/kg, po relative to excretion rate; type: ADME, organism-based; details: in vivo

CCC(CC)N(CCN(C)C(=O)CCC(=O)NC(C)(C)C(=O)NCCN(C)C)Cc1cccc(C(=O)Nc2sc3c(c2C(=O)c2cnn(-c4ccc(Cl)c(C(F)(F)F)c4)c2)CCC(C)(C)C3)c1.Cl
solubility [1]: 242 µg/mL
solubility [2]: > 434 µg/mL

CCC(CC)N(CCN(C)C(=O)CCC(=O)O)S(=O)(=O)c1cccc(C(=O)Nc2sc3c(c2C(=O)c2cnn(-c4ccc(Cl)c(C(F)(F)F)c4)c2)CCC(C)(C)C3)c1
IC50 [3]: 39 nM

CCC(CC)N(CCN(C)C(=O)CCC(=O)O)Cc1cccc(C(=O)Nc2sc3c(c2C(=O)c2cnn(-c4ccc(Cl)cc4)c2)CCN(S(C)(=O)=O)C3)c1
IC50 [3]: 2490 nM

CCC(CC)N(CCN(C)C(=O)CCC(=O)O)Cc1cccc(C(=O)Nc2sc3c(c2C(=O)c2cnn(Cc4nnc[nH]4)c2)CCC(C)(C)C3)c1
IC50 [3]: > 1000 nM

CCC(CC)N(CCN(C)C(=O)CCC(=O)O)Cc1cccc(C(=O)Nc2sc3c(c2C(=O)c2cnn(-c4ccc(Cl)cc4)c2)CCN(C2CC2)C3)c1
IC50 [3]: 80 nM

CCC(CC)N(CCN(C)C(=O)CCC(=O)O)Cc1cccc(C(=O)Nc2sc3c(c2C(=O)c2cnn(Cc4cccc(C(=O)O)c4)c2)CCC(C)(C)C3)c1
IC50 [3]: > 1000 nM

CCC(CC)N(CCN(C)C(=O)CCC(=O)NCCOCCOCCOCCO)Cc1cccc(C(=O)Nc2sc3c(c2C(=O)c2cnn(-c4ccc(Cl)c(C(F)(F)F)c4)c2)CCC(C)(C)C3)c1
IC50 [3]: 15 nM
IC50 [4]: 2.1 nM
AUC(0-t) [5]: 1570 ng·h/mL
Cmax [6]: 28.1 ng/mL
AUC(0-t) [7]: 32.3 ng·h/mL
bioavailability [8]: 0.2%
dose excreted at 24 h [9]: 61.7%
Ct [10]: 58 µg/mL
Ct [11]: 36 µg/mL

CCC(CC)N(CCN(C)C(=O)CCC(=O)O)Cc1cccc(C(=O)Nc2sc3c(c2C(=O)c2cnn(-c4cccc(C(=O)O)c4)c2)CCC(C)(C)C3)c1
IC50 [3]: > 1000 nM

CCC(CC)N(CCN(C)C(=O)CCC(=O)NCCOCCOCCOCCO)Cc1cccc(C(=O)Nc2sc3c(c2C(=O)c2cnn(-c4ccc(Cl)c(C(F)(F)F)c4)c2)CCC(C)(C)C3)c1.Cl
solubility [1]: 107 µg/mL
solubility [2]: > 384 µg/mL

CCC(CC)N(CCN(C)C(=O)CCC(=O)O)Cc1cccc(C(=O)Nc2sc3c(c2C(=O)c2cnn(-c4cccc(C(F)(F)F)c4)c2)CCC(C)(C)C3)c1
IC50 [3]: 46 nM

CCC(CC)N(CCN(C)C(=O)CCC(=O)O)Cc1cccc(C(=O)Nc2sc3c(c2C(=O)c2cnn(-c4ccc(Cl)cc4)c2)CCCC3)c1
IC50 [3]: 118 nM

CCC(CC)N(CCN(C)C(=O)CCC(=O)O)Cc1cccc(C(=O)Nc2sc3c(c2C(=O)c2cnn(-c4ccc(C(=O)O)cc4)c2)CCC(C)(C)C3)c1
IC50 [3]: > 1000 nM

CCN([C@H]1CC[C@H](C(=O)O)CC1)S(=O)(=O)c1cccc(C(=O)Nc2sc3c(c2C(=O)c2cnn(-c4ccc(Cl)c(C(F)(F)F)c4)c2)CCC(C)(C)C3)c1
IC50 [3]: 42 nM

CCC(CC)N(CCN(C)C(=O)CCC(=O)O)Cc1cccc(C(=O)Nc2sc3c(c2C(=O)c2cnn(-c4ccc(Cl)c(C(F)(F)F)c4)c2)CCC(C)(C)C3)c1
IC50 [3]: 38 nM
AUC(0-t) [5]: 3070 ng·h/mL
Cmax [6]: 625 ng/mL
AUC(0-t) [7]: 2190 ng·h/mL
bioavailability [8]: 7.1%

CC1(C)CCc2c(sc(NC(=O)c3cccc(OCCOCCOCCOCCOCCOCCO)c3)c2C(=O)c2cnn(-c3ccc(Cl)c(C(F)(F)F)c3)c2)C1
IC50 [3]: 170 nM

CCC(CC)N(CCN(C)C(=O)CCC(=O)NC(C)(C)C(=O)NCCN(C)C)Cc1cccc(C(=O)Nc2sc3c(c2C(=O)c2cnn(-c4ccc(Cl)c(C(F)(F)F)c4)c2)CCC(C)(C)C3)c1
IC50 [3]: 48 nM
IC50 [4]: 7.6 nM
AUCt [5]: 2580 ng·h/mL
Cmax [6]: 15.3 ng/mL
AUCt [7]: 15.3 ng·h/mL
F ([8]; po, 10 mg/kg): 0.6%
dose excreted at 24 h [9]: 76.8%
Ct [10]: 58 µg/mL
Ct [11]: 45 µg/mL

CCC(CC)N(CCN(C)C(=O)CCC(=O)N(C)C[C@H](O)[C@@H](O)[C@@H](O)[C@H](O)CO)Cc1cccc(C(=O)Nc2sc3c(c2C(=O)c2cnn(-c4ccc(Cl)c(C(F)(F)F)c4)c2)CCC(C)(C)C3)c1
IC50 [3]: 87 nM

CCC(CC)N(CCN(C)C(=O)CCC(=O)O)Cc1cccc(C(=O)Nc2sc3c(c2C(=O)c2cnn(Cc4ccccc4)c2)CCC(C)(C)C3)c1
IC50 [3]: 179 nM

CCC(CC)N(CCN(C)C(=O)CCC(=O)O)Cc1cccc(C(=O)Nc2sc3c(c2C(=O)c2cnn(-c4ccc(Cl)cc4)c2)CCOC3)c1
IC50 [3]: 437 nM

CCC(CC)N(CCN(C)C(=O)CCC(=O)O)Cc1cccc(C(=O)Nc2sc3c(c2C(=O)c2cnn(-c4ccc(Cl)cc4)c2)CCC(C)(C)C3)c1
IC50 [3]: 36 nM

CCC(CC)N(CCN(C)C(=O)CCC(=O)O)Cc1cccc(C(=O)Nc2sc3c(c2C(=O)c2cnn(Cc4ccc(C(=O)O)cc4)c2)CCC(C)(C)C3)c1
IC50 [3]: > 1000 nM

CCC(CC)N(CCN(C)C(=O)CCC(=O)O)Cc1cccc(C(=O)Nc2sc3c(c2C(=O)c2cnn(-c4ccc(Cl)cc4)c2)CCN(C(C)=O)C3)c1
IC50 [3]: > 1000 nM

CCC(CC)N(CCN(C)C(=O)CCC(=O)O)Cc1cccc(C(=O)Nc2sc3c(c2C(=O)c2cnn(-c4ccc(Cl)cc4)c2)CCSC3)c1
IC50 [3]: 713 nM
